Publication PMC10281321, “Discovery of an effective anti-inflammatory agent for inhibiting the activation of NF-κB” (Journal of Enzyme Inhibition and Medicinal Chemistry, 2023)
Entries after “also recorded” stand apart in the source; their conditions may differ.

Tests used:
[1] = Cytotoxicity by MTT assay; assay type: cell-based
[2] = system: LPS-stimulated RAW264.7 cells; test: NO release inhibition in LPS-stimulated RAW264.7 cells (Griess reagent); assay type: cell-based
Description: After incubated for 24 hours, cells were treated with tested compounds for different
concentrations(3.125,6.25,12.5,25 and 50μM) for 1 h, and then treated with 1 μg/mL LPS
for further 24 h. The supernatants were collected and NO level was measured using
Griess reagent (Beyotime, China). […]

MAPKs (P38, JNK and ERK) = test: Western blot of LPS-regulated MAPK signalling activation in RAW264.7 cells; assay type: cell-based; conditions: LPS stimulated, WB
Description: (§1) RAW264.7 cells were seeded into 6 well plate at a density of 1.5×10^6 per well and incubated at 37 C in 5% CO2 about 24 h. RAW264.7 cells were pretreated with compound (4, 2, 1 μM) for 1 h, then treated with LPS (1 μg/mL) for 30 min. The cells were lysed in 300 μL RIPA cell lysis buffer and the samples were analyzed by WB. […] All antibodies were purchased from ZENBIO. […]

iNOS and COX-2 = test: Western blot of iNOS and COX-2 expression in LPS-stimulated RAW264.7 cells; assay type: cell-based; conditions: compound 1 h then LPS 24 h, WB
Description: RAW264.7 cells were seeded into 6 well plate at a density of 1.5×10^6 per well and incubated at 37 C in 5% CO2 about 24 h. RAW264.7 cells were pretreated with […]
were lysed in 300 μL RIPA cell lysis buffer and the samples were analyzed by WB. […] All antibodies were purchased from ZENBIO. […]

RAW264.7 cells = test: Reactive oxygen species (ROS) assay in LPS-stimulated RAW264.7 cells; assay type: cell-based; conditions: 1 μg/mL LPS 24 h, DCFH-DA
Description: […]
(§2) 4.5. NF-κB transcriptional activity assay
HEK293T cells were seeded into 96 well plate at a density of 1×10^5 cells per well. After incubated for 24 hours, cells were transfected with NF-κB reporter plasmid at 100 ng/well using lip2000.Six hours later, the medium was replaced by fresh medium containing tested compounds with different concentrations. Then incubated for another hour, TNF-α was added for a final concentration at 10 ng/mL.12 hours later, the cell lysate was collected and the RLU was measured by microplate reader.
4.6. […]
(§3) RAW264.7 cells were seeded into 6 well plate at a density of 1.5×10^6 cells per well. After incubated for 24 hours, cells were treated with different concentrations of compound and stimulated by 1 μg/mL LPS after one hour.24 hours later, the supernatant was collected and measured by ELISA kits(MultiScience). […]
stimulated by 1 μg/mL LPS after one hour.24 hours later, cells were collected and washed by PBS for three times. […] Cell samples were incubated for 20 min at 37°C,and then the fluorescence intensity measured by microplate reader using Ex λ 488 nm and Em λ 525 […]

NF-κB = NF-κB transcriptional activity dual-luciferase reporter assay, TNF-α stimulated; assay type: cell-based; conditions: HEK293T cells transfected with NF-κB reporter plasmid, stimulated by TNF-α
Description: as §2
HEK293T cells were seeded into 96 well plate at a density of 1×10^5 cells per well. After incubated for 24 hours, cells were transfected with NF-κB reporter plasmid at 100 ng/well using lip2000.Six hours later, the medium was replaced by fresh medium containing tested compounds with different concentrations. Then incubated for another hour, TNF-α was added for a final concentration at 10 ng/mL.12 hours later, the cell lysate was collected and the RLU was measured by microplate reader. […]

[3] = system: RELA (p65) and NFKB1 (p50) subunits of NF-κB; test: Western blot of TNFα-induced nuclear translocation of p65 and p50 in HEK293T cells; assay type: cell-based; conditions: compound 4, 2, 1 μM 1 h, then TNF-α 12 h, nuclear protein WB
Description: HEK293T cells were seeded into 6 well plate at a density of 1.5×10^6 cells per well and incubated at 37°C in 5% CO2 about 24 h. HEK293T cells were pretreated with compound (4, 2, 1 μM) for 1 h, then treated with TNF-α (1 μg/mL) for 12 h. The nuclear protein was extracted by Nuclear protein extraction kit(Beyotime).The samples were analyzed by WB.
All antibodies were purchased from ZENBIO. […]

TNF-α and IL-6 = TNF-α and IL-6 assay (ELISA) in LPS-stimulated RAW264.7 cells; assay type: cell-based; conditions: 1 μg/mL LPS 24 h, supernatant ELISA
Description: 4.6. TNF-α and IL-6 assay
as §3

[4] = system: LPS-induced inflammation model of mice; test: LPS-induced inflammation model in vivo; set-up: species or system C57BL/6 mice
Description: All antibodies were purchased from ZENBIO.
4.9 Establishment of LPS-induced inflammation models in vivo
The 30 male C57BL/6 mice weighing 18-22 g were purchased from Animal Department of Anhui Medical University. After adaptive feeding for a week, mice were randomly divided into five groups on average, including the control group, LPS group, compound 51 (5,10,20 mg/kg) +LPS group. Before received 20 mg/kg LPS by intraperitoneal injection, mice were gavaged for three days of compound 51. 6 hours after received LPS, the blood and tissues were taken from mice. The levels of IL-6, TNF-α, SOD and MDA

NF-κB p65 and IκBα = test: Western blot of LPS-induced phosphorylation of p65 and IκBα in RAW264.7 cells; assay type: cell-based; conditions: compound 4, 2, 1 μM 1 h, then LPS 1 μg/mL 30 min, WB
Description: as §1

[5] = compound 51 5,10,20 mg/kg gavaged, LPS i.p.
[6] = compound 51 5,10,20 mg/kg gavaged, LPS i.p., ELISA

CC(=O)Nc1ccc(NC(=O)c2cc(-c3ccc(N)cc3Cl)cnc2N)cc1 [Compound 51]
IC50 [1]: > 50000 nM | cytotoxicity (in words) [1]: did not show obvious cytotoxicity | IC50 ([2]; Mus musculus, LPS-stimulated RAW264.7 cells, Griess Reagent): 3100 ± 1100 nM | anti-inflammatory activity (in words) ([2]; SAR summary covering NO release and NF-κB reporter inhibition): superior anti-inflammatory activity | phosphorylation of ERK (MAPKs (P38, JNK and ERK)): significantly decreased | phosphorylation of JNK (MAPKs (P38, JNK and ERK)): significantly decreased | phosphorylation of P38 (MAPKs (P38, JNK and ERK)): significantly decreased | expression of COX-2 (iNOS and COX-2): decreased significantly | expression of iNOS (iNOS and COX-2): decreased significantly | level of ROS (RAW264.7 cells): decrease the level of ROS obviously | IC50 (NF-κB): 172 ± 11.4 nM | IC50 (NF-κB; Homo sapiens, HEK-293T): 173 nM | TNFα-induced nuclear translocation of p50 [3]: inhibited by compound in a dose dependent manner | TNFα-induced nuclear translocation of p65 [3]: inhibited by compound in a dose dependent manner | level of IL-6 (TNF-α and IL-6): decreased the levels of TNF-α and IL-6 significantly in a dose dependent manner | level of TNF-α (TNF-α and IL-6): decreased the levels of TNF-α and IL-6 significantly in a dose dependent manner | activation of NF-κB in splenic organ ([4]; LPS i.p., spleen WB): suppressed the activation of NF-κB in splenic organ | injury of spleen (HE staining) ([4]; compound 51 5,10,20 mg/kg gavaged three days before LPS i.p.): alleviated these injury in a dose-dependent manner | gastric distention and splenomegaly ([4]; compound 51 5,10,20 mg/kg gavaged three days before LPS i.p., 6 hours after LPS): these symptoms were relieved | MDA activity in blood [4, 5]: reversed their activity; also recorded: decreased MDA activity | SOD activity in blood [4, 5]: reversed their activity; also recorded: increased SOD activity | IL-6 level in blood [4, 6]: decreased obviously | TNF-α level in blood [4, 6]: decreased obviously | LPS-induced phosphorylation of IκBα (NF-κB p65 and IκBα): suppressed significantly in a dose dependent manner | LPS-induced phosphorylation of p65 (NF-κB p65 and IκBα): suppressed significantly in a dose dependent manner
